Results reported in patent publication US9061012B2, “Uses of DGAT1 inhibitors” (Novartis AG, priority 2010, dated 2015).

Tests used:
FCS (Type I) patients = assay: Open-label clinical study, fasting and postprandial (MTT) triglycerides in FCS patients; format: in vivo, human
Description: (§1) An open-label, multiple-dose, parallel group clinical study is carried out to assess the safety, tolerability, pharmacokinetics and pharmacodynamics of compound 1 in twelve patients with chylomicronemia (six with FCS and six with Type V).
(§2) The safety and tolerability of multiple doses of Compound 1 in patients with chylomicronemia (both FCS and Type V), and the effect of oral Compound 1 on fasting and postprandial plasma triglycerides in the study population are determined using the following method.
(§3) The clinical study is an open-label, out-patient parallel group study to assess the safety, tolerability, pharmacokinetics and pharmacodynamics of Compound 1 administered once daily for 21 days in patients with chylomicronemia (both FCS and Type V). Six patients of each phenotype are enrolled and treated with Compound 1 at 20 mg per day for 21 days. Following a screening period of up to 90 days, eligible patients undergo a 7-day baseline period, a 21-day treatment period, a 14-day follow-up period after last treatment day and a study completion evaluation.
(§4) The enrolling criteria for Type V patients is a screening baseline of greater than or equal to 1000 mg/dL fasting triglycerides (TG), and a documented history of heterozygous lipoprotein lipase deficiency. The enrolling criteria for familial chylomicronemia syndrome (FCS) patients is a screening baseline of greater than or equal to 1000 mg/dL fasting triglycerides, and a documented history of homozygous lipoprotein lipase deficiency.
(§5) Patients are seen at a screening visit, and, if found to meet enrollment criteria, are enrolled in the study. At this time they are given instructions to adhere to a very low fat diet (<15 g/day) during the duration of the study, as is the standard of care for this population. Patients are also provided with three days' worth of standardized very low fat meals that are consumed for the three days prior to baseline evaluation (Day—4, Day—3, & Day—2)
(§6) Patients arrive at the study site on Day—1 early morning after an overnight fast for a meal tolerance test (MTT) to evaluate baseline postprandial triglyceride (TG) response. The MTT is a liquid meal of approximately 700 kcal, being 13% fat, 65% carbohydrates and 22% protein. Before the MTT, and at hourly time points through 9 hours, blood samples are taken for triglyceride and other metabolic measurements. Patients are discharged after completing this assessment and return to the study site next morning (Day 1) for a blood collection approximately 24 hours post meal, before the first dose of the study drug (Compound 1 tablets) is administered.
(§7) On the morning of Day 1, patients receive the first dose of Compound 1 at the clinic site. The drug supply for remainder of the 21-day treatment period is provided to the patients, who are instructed to take the drug orally once daily approximately one hour before breakfast for 21 days. Patients are also instructed to continue adherance to a very low fat diet. Patients are then released to home.
(§8) Patients report to the study site once weekly during the treatment period for safety and pharmacokinetics assessment, drug accountability and reviewing the meal plan and food diary. Additionally, the site staff contacts patients by phone, at least once between the clinic visits to check patients' wellbeing and monitor compliance with drug administration and low-fat meals instructions.
(§9) Patients are given pre-prepared very low-fat meals again that are consumed on Day 18, 19 & 20. Patients return to the study site on Day 21 early morning after an overnight fast for a second test meal (MTT) and frequent blood samples collection to evaluate postprandial TG response. Following the MTT and associated Day 21 assessments, patients are discharged to home. They return on the morning of Day 22 for a 24 h blood sample for triglycerides.

[1] = tested on: patients with chylomicronemia (both FCS and Type V); assay: Open-label clinical study, safety and tolerability and overall triglyceride effect in patients with chylomicronemia (FCS and Type V); format: in vivo
Description: as §1, §2, §3
The enrolling criteria for Type V patients is a screening baseline of greater than or equal to 1000 mg/dL fasting triglycerides (TG), and a documented history of heterozygous lipoprotein lipase deficiency. […]

Triton rat = assay: Plasma triglycerides after Intralipid and Triton WR-1339 in a model of impaired triglyceride clearance; format: in vivo, rat (male Sprague Dawley); details: for Plasma TG at 90 min: 90 min after Triton WR-1339 100 mg/kg i.v.; for Plasma TG at 90 min / Plasma TG at 120 min / Pre-Triton TG: compound 1 at 10 mg/kg by gavage, mean ± SEM; for Plasma TG at 120 min: 120 min after Triton WR-1339 100 mg/kg i.v.; for Pre-Triton TG: before Triton WR-1339, Intralipid 10 mL/kg 30 min later
Description: Male Sprague Dawley rats were studied at 9 and 10 weeks of age and were overnight fasted the night prior to study. The compound treated groups received a suspension of compound 1 at 10 mg/kg administered in 0.5% methyl cellulose with 0.1% Tween-80 at […]. Vehicle treated groups were dosed in a volume-matched manner with 0.5% methyl cellulose with 0.1% Tween-80. Vehicle and compounds were made up in a single batch the day before the start of each study. Orlistat was administered as a suspension in 0.5% methyl cellulose with 0.1% Tween-80 at 4 mL/kg. Intralipid was used as a high fat meal. Triton WR-1339 (10% weight: weight) was dissolved in normal saline and dosed at 100 mg/kg (i.v.) at a volume of 1 mL/kg. A baseline blood sample was collected by tail nick into ethylenediaminetetraacetic acid-lined tubes (Sarstedt, Nümbrecht, Germany) immediately prior to administering compounds (between 0830 and 0900 hrs). Rats were gavaged with drug or vehicle (4 mL/kg) beginning at 0830 hrs. Thirty minutes later, Intralipid was gavaged at 10 mL/kg to all rats, representing t=−30 min. Again, thirty minutes later, representing time=0 min, all rats were dosed via tail vein with Triton WR-1339 (100 mg/kg and 1 mL/kg) in normal saline. Blood samples were taken at −30 minutes (immediately prior to Intralipid/water dosing), −15 minutes, 0 minutes (immediately prior to Triton WR-1339 administration), as well as at 30, 60, 90, 120, and 240 minutes following administration of Triton WR-1339. Blood samples remained on ice following collection for no longer than 30 min prior to centrifugation. Following centrifugation (10 min, 4° C., 1000×g), plasma was aliquoted for plasma TG analysis. Data are reported as means±SEM. Repeated measures two-way ANOVA was used to assess the significance of the treatment by time interaction in plasma TGs followed by Tukey's post-hoc test to compare differences among the groups. Significance was set at P<0.05 and represented as asterisks in FIG. 3.

Type V patients = assay: Open-label clinical study, fasting and postprandial (MTT) triglycerides in Type V patients; format: in vivo, human
Description: as §1, §2, §3, §4, §5, §6, §7, §8, §9

STZ rats = assay: Plasma triglycerides after Intralipid in a model of severe hypertriglyceridemia (STZ, high fat diet); format: in vivo, rat (male Sprague Dawley); details: for Plasma TG at 2 hrs / Plasma TG at 4 hrs: 10 mpk oral gavage 30 min before Intralipid 10 ml/kg; for Plasma TG at 2 hrs: 2 hrs post-Intralipid; for Plasma TG at 2 hrs / Plasma TG at 4 hrs / Pre-dose TG: mean ± SEM; for Plasma TG at 4 hrs / Plasma TGs at 4 hrs compared between groups: 4 hrs post-Intralipid; for Pre-dose TG: baseline immediately before dosing, 6 h fasted, group later given 10 mpk oral, n=10/group
Description: Male Sprague Dawley (SD) rats at 12 wks of age were studied. Orlistat (04139-100MG) and Streptozotocin (S0130-1G) were purchased from Sigma (St. Louis, Mo.).
Compounds were suspended in vehicle (0.5% methyl cellulose with 0.1% Tween-80) to achieve a dosing volume of 4 ml/kg and dosing concentration of 10 mpk for both compound 1 and orlistat (Sigma, St. Louis, Mo.).
Two weeks into consuming a 60% high fat diet, animals were treated with a 40 mpk dose of streptozotocin (STZ given intravenously (iv) in 10 mM sodium citrate in normal saline, pH=4.5). Nine days later, animals were assigned to three experimental groups (vehicle, compound 1 at 10 mpk, or orlistat at 10 mpk) on the basis of 6 hr fasted TG concentrations (n=10/group). On the morning of the study, 14 days after animals were placed in experimental groups, animals were fasted for 6 hours, after which studies commenced at 1100 hr with baseline blood collected by tail nick into ethylenediaminetetraacetic acid-lined tubes (Sarstedt, Nümbrecht, Germany).
The baseline blood sample (80 μl) was collected immediately prior to administering compounds. Rats were orally gavaged with drug or vehicle (4 ml/kg) beginning at 1100 hrs. Thirty minutes later, Intralipid was orally gavaged at 10 ml/kg to all rats, representing t=0 hr. At 2 and 4 hrs post-Intralipid, tail nick blood samples were taken to assess plasma TGs.
Blood samples remained on ice following collection for no longer than 30 min prior to centrifugation (10 min, 4° C., 1000 g) and resulting plasma was aliquoted for plasma TG analysis.
Plasma TGs (triglycerides) (corrected for glycerol) were compared on an absolute basis, as a percent change from baseline (% TGs), and as area above baseline over 0-4 hours (AABtg0-4-h) using the Trapezoidal rule. Percent change from baseline was calculated as follows: % change from baseline=([TGs] at 2 or 4 hrs)−([TGs] at baseline)*100 [TGs] at baseline Statistical Analyses
Data are reported as means±SEM. One-way ANOVA (analysis of variance) assessed between-group differences when any comparisons that were not time-dependent were made (body weight, pre-study plasma TGs, AABtg0-4-h). To assess that the Intralipid bolus produced a significant increase in plasma TGs in the vehicle group, a repeated measures (RM) one-way ANOVA was used with Tukey's posthoc test applied to compare plasma parameter means at 2 and 4 hrs vs. pre-treatment concentrations. RM two-way ANOVA was used to assess the significance of the treatment-by-time interaction for plasma parameters (TGs and % TGs) followed by Bonferroni's t-test to compare differences among the groups. Outliers were determined using the Grubb's Test for Outliers. Significance was set at P≦0.05.

[2] = Type I (FCS) patients, n = 6, 20 mg per day oral for 21 days, MTT
[3] = Type I (FCS) patients, n = 6, MTT before treatment
[4] = n = 6, 20 mg per day oral for 21 days, MTT

O=C([O-])C[C@H]1CC[C@H](c2ccc(-c3ccc(Nc4ccc(C(F)(F)F)nc4)cn3)cc2)CC1.[Na+] [Compound 1, trans-4-[4-[5-[[6-(trifluoromethyl)-3-pyridinyl]amino]-2-pyridinyl]phenyl]cyclohexane acetic acid, sodium salt] was tested, and the “Fasting TG, Mean Δ from Baseline” value (FCS (Type I) patients; Type I (FCS) patients, n = 6, 20 mg per day oral for 21 days) was −38.4%, the “Postprandial Peak TG, Mean Δ from Baseline” value (FCS (Type I) patients; [2]) was −36.4% and the “Postprandial TG AUC0-9, Mean Δ from Baseline” value (FCS (Type I) patients; [2]) was −35.4%. The “Postprandial Peak TG, Mean Baseline” value (FCS (Type I) patients; [3]) was 1913.1 mg/dL, the “Postprandial TG AUC0-9, Mean Baseline” value (FCS (Type I) patients; [3]) was 15044.5 mg·h/dL and the “Fasting TG, Mean Baseline” value (FCS (Type I) patients; Type I (FCS) patients, n = 6, before treatment) was 1968.0 mg/dL. The “Fasting triglycerides decreased by” value (FCS (Type I) patients; patients with FCS, 20 mg daily for 3 weeks) was 38.4%, the Postprandial triglycerides (FCS (Type I) patients; patients with FCS, 20 mg daily for 3 weeks, relative to fasting TG decrease) was “reduced by a similar magnitude” and the “Triglyceride levels decreased by” value (FCS (Type I) patients; patients with FCS, to near the threshold for increased pancreatitis risk (about 1000 mg/dL)) was “about 40%”. For the same compound, the Safety and tolerability ([1]; all 12 patients, 20 mg daily for 3 weeks) was “safe and well tolerated”, the “Triglyceride levels after 3 weeks of treatment” value ([1]; both groups of patients (FCS and Type V), 20 mg daily) was “decreased” and the “Plasma TG at 90 min” value (Triton rat) was 290.2 ± 89.7 mg/dL. For the same compound, the “Plasma TG at 120 min” value (Triton rat) was 479.3 ± 123.4 mg/dL, the “Pre-Triton TG” value (Triton rat) was 35.6 ± 5.6 mg/dL and the “Rate of absorption of triglycerides arising from a high fat meal” value (Triton rat; conclusion from Triton rat data) was “suppresses”. The “Plasma TG appearance compared to vehicle and orlistat treatments” value (Triton rat; following Intralipid bolus, at 90 and 120 minutes post Triton WR-1339, P≦0.05) was “significantly decreased”, the “Fasting triglycerides decreased by” value (Type V patients; 20 mg daily for 3 weeks) was 23.6% and the “Triglyceride levels relative to the threshold for increased pancreatitis risk (about 1000 mg/dL)” value (Type V patients; 20 mg daily for 3 weeks) was “kept well below the threshold”. For the same compound, the Postprandial triglycerides (Type V patients; 20 mg daily for 3 weeks, relative to fasting TG decrease) was “reduced by a similar magnitude”, the “Fasting TG, Mean Δ from Baseline” value (Type V patients; n = 6, 20 mg per day oral for 21 days) was −23.6% and the “Postprandial Peak TG, Mean Δ from Baseline” value (Type V patients; [4]) was −25.8%. For the same compound, the “Postprandial TG AUC0-9, Mean Δ from Baseline” value (Type V patients; [4]) was −27.3%, the “Postprandial Peak TG, Mean Baseline” value (Type V patients; n = 6, MTT before treatment) was 835.2 mg/dL and the “Postprandial TG AUC0-9, Mean Baseline” value (Type V patients; n = 6, MTT before treatment) was 6873.0 mg·h/dL. For the same compound, the “Fasting TG, Mean Baseline” value (Type V patients; n = 6, before treatment) was 745.8 mg/dL, the “Plasma TG at 2 hrs” value (STZ rats) was 494.5 ± 54.2 mg/dL and the “Plasma TG at 4 hrs” value (STZ rats) was 461.5 ± 52.5 mg/dL. For the same compound, the “Plasma TGs at 4 hrs compared between groups” value (STZ rats; 10 mpk oral) was “did not differ”, the “Plasma TGs at 2 hrs compared to vehicle and orlistat groups” value (STZ rats; 10 mpk oral, P≦0.001) was “significantly lower” and the “Pre-dose TG” value (STZ rats) was 346.1 ± 49.6 mg/dL. For the same compound, the “Blunting an increase in plasma triglycerides” value (STZ rats; model of severe hypertriglyceridemia) was “effective”.
In the case of CCCCCCCCCCC[C@@H](C[C@@H]1OC(=O)[C@H]1CCCCCC)OC(=O)[C@H](CC(C)C)NC=O [Orlistat, reference compound], the “Plasma TG at 90 min” value (Triton rat) is reported as 747.3 ± 203.7 mg/dL, the “Plasma TG at 120 min” value (Triton rat) is reported as 984.9 ± 251.7 mg/dL and the “Pre-Triton TG” value (Triton rat) is reported as 114.5 ± 13.0 mg/dL. For the same compound, the “Plasma TG at 2 hrs” value (STZ rats) was 891.8 ± 97.8 mg/dL, the “Plasma TG at 4 hrs” value (STZ rats) was 236.3 ± 37.9 mg/dL and the “Plasma TGs at 4 hrs compared between groups” value (STZ rats; 10 mpk oral) was “lower than the other 2 groups”. The “Pre-dose TG” value (STZ rats) was 288.4 ± 27.4 mg/dL.
